Experimental data published in the supplement of paper PMC8882468.

Assays:
Test in all cases: CTG-3D luminescence at 96 h relative to day-0 seeding control (ratio to day 0); higher = more growth / less cytotoxicity; PDxO 3D drug screen (set 2), 96 h, CTG-3D normalised to day-0 seeding control.
HCI-002 = tested on: HCI-002 (organoid from a triple-negative breast cancer xenograft)
HCI-024 = tested on: HCI-024 (organoid from a breast cancer xenograft)
HCI-019 = tested on: HCI-019 (organoid from a triple-negative breast cancer xenograft)
HCI-023 = tested on: HCI-023 (organoid from a triple-negative breast cancer xenograft)
HCI-027 = tested on: HCI-027 (organoid from a triple-negative breast cancer xenograft)

O=C(c1cc(Cc2n[nH]c(=O)c3ccccc23)ccc1F)N1CCN(C(=O)C2CC2)CC1 [olaparib]
CTG-3D luminescence at 96 h
Settings	12.5 pM	0.00025 µM	0.005 µM	0.1 µM	1 µM	10 µM	100 µM	625 fM
HCI-002, days in culture: 127	2.26	2.88	2.92	2.97	2.45	2.59	2.23	2.54
HCI-002, days in culture: 155	4.7	4.7	5.6	6.16	4.47	2.8	2.34	4.33
HCI-002, days in culture: 168	3.4	3.26	4.03	3.35	3.14	2.04	1.7	3.55
HCI-019, days in culture: 173	2.78	1.9	2.2	2.31	0.982	0.711	1.32	1.96
HCI-019, days in culture: 194	0.984	1.95	2.68	1.65	1.48	0.946	0.789	2.41
HCI-019, days in culture: 215	2	2.06	1.04	1.59	1.06	0.36	0.254	1.33
HCI-023, days in culture: 223	1.7	2.3	1.79	1.65	1.36	1.31	0.879	1.75
HCI-023, days in culture: 238	1.45	1.31	1.45	1.53	1.9	1.41	0.856	1.72
HCI-023, days in culture: 252	2.12	1.81	1.55	2	1.78	1.86	1.59	2.3
HCI-024, days in culture: 202	0.819	0.984	0.907	1.28	0.775	1.01	0.38	1.05
HCI-024, days in culture: 231	0.787	0.983	0.972	1.27	1.78	1.27	0.836	1.4
HCI-024, days in culture: 254	1.65	1.41	1.28	1.24	1.88	1.07	0.671	1.54
HCI-027, days in culture: 145	1.79	3.31	2.66	1.56	1.71	2.13	0.976	1.89
HCI-027, days in culture: 158	1.27	3.16	2.16	2.6	1.87	3.12	1.79	3.17
HCI-027, days in culture: 164	4.1	1.37	2.13	2.08	1.58	0.874	0.555	2.58
HCI-027, days in culture: 176	3.94	1.97	1.54	1.61	2.6	0.771	0.452	1.65
HCI-027, days in culture: 186	0.87	1.38	2.3	3.57	1.26	1.58	0.34	3.34

CO[C@H]1C[C@@H]2CC[C@@H](C)[C@@](O)(O2)C(=O)C(=O)N2CCCC[C@H]2C(=O)O[C@H]([C@H](C)C[C@@H]2CC[C@@H](OCCO)[C@H](OC)C2)CC(=O)[C@H](C)/C=C(\C)[C@@H](O)[C@@H](OC)C(=O)[C@H](C)C[C@H](C)/C=C/C=C/C=C/1C [everolimus]
CTG-3D luminescence at 96 h
Settings	12.5 pM	0.00025 µM	0.005 µM	0.1 µM	1 µM	10 µM	100 µM	625 fM
HCI-002, days in culture: 127	1.87	2.27	2.16	2.43	2.17	2.2	-0.00603	2.25
HCI-002, days in culture: 155	3.94	3.58	4.06	4.09	2.96	2.78	-0.00382	3.53
HCI-002, days in culture: 168	3.61	3.15	3.32	2.37	2.67	2.73	-0.000729	3.88
HCI-019, days in culture: 173	1.57	1.31	1.21	1.38	1.1	0.954	0.000122	1.63
HCI-019, days in culture: 194	1.27	0.886	1.15	1.13	1.33	0.725	-0.00106	1.7
HCI-019, days in culture: 215	0.96	0.554	0.902	0.622	0.482	0.326	0.000571	1.76
HCI-023, days in culture: 223	2.04	1.82	1.17	1.19	0.991	1.28	-0.00123	1.43
HCI-023, days in culture: 238	1.22	1.01	1	1.23	1.61	0.915	-0.00183	1.32
HCI-023, days in culture: 252	1.97	1.75	1.51	1.44	1.55	1.91	-0.00273	1.89
HCI-024, days in culture: 202	0.906	1.18	0.737	1.7	1.12	1.74	0.00395	1.12
HCI-024, days in culture: 231	0.783	1.17	0.961	1.01	0.971	1.11	0.000185	0.943
HCI-024, days in culture: 254	2.18	0.836	1.02	1.31	1.11	1.02	0.00153	2.4
HCI-027, days in culture: 145	1.16	1.53	1.5	1.39	1.19	0.742	-0.00159	1.87
HCI-027, days in culture: 158	1.27	1.84	2.74	2.29	2.53	0.866	-0.00155	5.49
HCI-027, days in culture: 164	2.66	1.52	1.32	1.43	0.817	0.404	0.000466	2.04
HCI-027, days in culture: 176	2.43	2.12	1.35	1.31	1.44	0.309	0.000718	2.75
HCI-027, days in culture: 186	1.24	1.55	2.18	1.05	0.291	0.288	0.00707	3.1
